26 compounds from US20200405696A1, “INHIBITORS OF INDOLEAMINE 2,3-DIOXYGENASE AND/OR TRYPTOPHAN 2,3-DIOXYGENASE” (IDORSIA PHARMACEUTICALS LTD, priority 2018, published 2020) can be followed below.

Assay [1] concerns the target T1, Recombinant full-length human IDO1 (Homo sapiens, UniProt P14902).
T1 construct: Recombinant full-length human IDO1 with a N-terminal hexahistidine tag; hexahistidine (His6) (N); made in house; host or cells: E. coli
In words: IDO1 enzymatic assay (NFK quantified by LCMS). The assay is classed as biochemical. The following applies: 2 nM enzyme, 5 μM L-tryptophan, pH6.5, 30 minutes pre-incubation at RT; mean values when measured multiple times; read-out: hIDO activity (IC50 in nM). Put shortly:
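IC50 comes from four-parameter logistic fits of duplicate data, with NFK quantified by LCMS and normalized to L-Trp-(indole-d5). Compound (0.5 nM–10 μM) was preincubated 30 min at RT with 2 nM E. coli-expressed IDO1 before a 30 min reaction with 5 μM tryptophan in pH 6.5 buffer containing ascorbate and methylene blue.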

For assay [2], the target named is T2, Recombinant human TDO comprising amino acids 19-407 (Homo sapiens, UniProt P48775).
T2 construct: Recombinant human TDO comprising amino acids 19-407 with a N-terminal hexahistidine tag; hexahistidine (His6) (N); made in house; host or cells: E. coli
In words: TDO2 enzymatic assay (NFK quantified by LCMS). The assay is classed as biochemical. The following applies: 15 nM enzyme, 200 μM L-tryptophan, pH7, 30 minutes pre-incubation at RT; mean values when measured multiple times; read-out: hTDO activity (IC50 in nM). The method, boiled down: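 NFK formed over 30 min at RT from 200 μM L-tryptophan was measured by LCMS, normalized to d5-tryptophan, after compound (0.5 nM–10 μM, duplicates, 0.6% DMSO) was preincubated 30 min with 15 nM recombinant His-tagged TDO 19-407 in phosphate buffer pH 7. IC50 from four-parameter logistic fit; repeats averaged.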

T2 sequence (P48775 19-406 limits assumed): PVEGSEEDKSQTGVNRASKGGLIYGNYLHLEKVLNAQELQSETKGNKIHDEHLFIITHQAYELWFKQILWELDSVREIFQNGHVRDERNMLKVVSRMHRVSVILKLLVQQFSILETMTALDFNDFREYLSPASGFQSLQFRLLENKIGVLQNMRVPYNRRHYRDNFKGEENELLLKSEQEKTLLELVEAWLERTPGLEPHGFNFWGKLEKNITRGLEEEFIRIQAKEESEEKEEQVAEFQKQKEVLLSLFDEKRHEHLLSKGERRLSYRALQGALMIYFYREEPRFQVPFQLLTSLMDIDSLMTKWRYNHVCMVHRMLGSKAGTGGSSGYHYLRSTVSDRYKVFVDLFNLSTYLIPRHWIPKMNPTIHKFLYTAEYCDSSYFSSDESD
T1 sequence (P14902 whole entry): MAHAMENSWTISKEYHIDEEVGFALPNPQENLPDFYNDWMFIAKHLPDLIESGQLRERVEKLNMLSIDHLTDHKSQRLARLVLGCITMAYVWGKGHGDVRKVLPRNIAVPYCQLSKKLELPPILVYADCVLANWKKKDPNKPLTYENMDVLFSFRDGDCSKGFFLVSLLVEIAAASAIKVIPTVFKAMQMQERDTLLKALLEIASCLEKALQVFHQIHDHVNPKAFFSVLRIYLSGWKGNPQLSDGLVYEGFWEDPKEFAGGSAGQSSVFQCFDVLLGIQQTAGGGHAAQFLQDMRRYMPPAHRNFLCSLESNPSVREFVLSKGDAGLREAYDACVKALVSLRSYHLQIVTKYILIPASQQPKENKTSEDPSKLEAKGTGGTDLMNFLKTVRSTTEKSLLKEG

The term IC50 denotes the point on the concentration scale where inhibition reaches its midpoint. `CNS(=O)(=O)c1ccc(-n2cc(C(O)c3c(C4CC4)sc4cncn34)nn2)cc1` (racemic) [Example 226, rac-4-{4-[(2-Cyclopropyl-imidazo[5,1-b]thiazol-3-yl)-hydroxy-methyl]-[1,2,3]triazol-1-yl}-N-methyl-benzenesulfonamide]: the IC50 was 63.6 nM in assay [1] and more than 10200 nM in assay [2].
In the same order, the values of `Oc1ccc(Cn2cc(C(O)c3c(C4CC4)sc4cncn34)nn2)cc1` (racemic) [Example 304, rac-4-{4-[(2-Cyclopropyl-imidazo[5,1-b]thiazol-3-yl)-hydroxy-methyl]-[1,2,3]triazol-1-ylmethyl}-phenol] are 52.2 nM and more than 10200 nM.
The matching figures for `COc1ccc(-n2cc(C(O)c3c(C4CC4)sc4cncn34)cn2)cc1C#N` (racemic) [Example 247, rac-5-{4-[(2-Cyclopropyl-imidazo[5,1-b]thiazol-3-yl)-hydroxy-methyl]-pyrazol-1-yl}-2-methoxy-benzonitrile]: 31.3 nM and 8140 nM.
Turning to `COc1ccc(-n2cc(C(O)c3c(C4CC4)sc4cncn34)nn2)cc1I` (racemic) [Example 291, rac-(2-Cyclopropyl-imidazo[5,1-b]thiazol-3-yl)-[1-(3-iodo-4-methoxy-phenyl)-1H-[1,2,3]triazol-4-yl]-methanol], the values for the IC50 in assay [1] and in assay [2] were 41.1 nM and more than 10200 nM, respectively.
In the same order, the values of `OC(c1cn(-c2ccncc2)nn1)c1c(C2CC2)sc2cncn12` (racemic) [Example 30, rac-(2-Cyclopropyl-imidazo[5,1-b]thiazol-3-yl)-(1-pyridin-4-yl-1H-[1,2,3]triazol-4-yl)-methanol] are 63.2 nM and more than 10200 nM.
In the same order, the values of `Oc1cccc(-n2cc(C(O)c3c(C4CC4)sc4cncn34)nn2)c1` (racemic) [Example 215, rac-3-{4-[(2-Cyclopropyl-imidazo[5,1-b]thiazol-3-yl)-hydroxy-methyl]-[1,2,3]triazol-1-yl}-phenol] are 27.6 nM and more than 10200 nM.
Consider `N#Cc1cccc(-c2ccc(C(O)c3c(C4CC4)sc4cncn34)s2)c1` (racemic) [Example 159, rac-3-{5-[(2-Cyclopropyl-imidazo[5,1-b]thiazol-3-yl)-hydroxy-methyl]-thiophen-2-yl}-benzonitrile], for which the results for the half-inhibitory concentration (IC50) in assay [1] and in assay [2] were 238 nM and 8310 nM, respectively.
As to `N#CCCNC(=O)c1ccc(-n2cc(C(O)c3c(C4CC4)sc4cncn34)nn2)cc1` (racemic) [Example 108, rac-N-(2-Cyano-ethyl)-4-{4-[(2-cyclopropyl-imidazo[5,1-b]thiazol-3-yl)-hydroxy-methyl]-[1,2,3]triazol-1-yl}-benzamide], the IC50 in assay [1] is 10 nM; in assay [2], more than 10200 nM.
The matching figures for `Cn1ncc2cccc(-n3cc(C(O)c4c(C5CC5)sc5cncn45)nn3)c21` (racemic) [Example 254, rac-(2-Cyclopropyl-imidazo[5,1-b]thiazol-3-yl)-[1-(1-methyl-1H-indazol-7-yl)-1H-[1,2,3]triazol-4-yl]-methanol]: 38.5 nM and more than 10200 nM.
For the compound `Cn1ccc2cc(-n3cc(C(O)c4c(C5CC5)sc5cncn45)cn3)cnc21` (racemic) [Example 229, rac-(2-Cyclopropyl-imidazo[5,1-b]thiazol-3-yl)-[1-(1-methyl-1H-pyrrolo[2,3-b]pyridin-5-yl)-1H-pyrazol-4-yl]-methanol], the values for the IC50 in assay [1] and in assay [2] were 43.7 nM and 1440 nM, respectively.
For `O=c1[nH]c2ccc(-n3cc(C(O)c4c(C5CC5)sc5cncn45)nn3)cc2o1` (racemic) [Example 179, rac-6-{4-[(2-Cyclopropyl-imidazo[5,1-b]thiazol-3-yl)-hydroxy-methyl]-[1,2,3]triazol-1-yl}-3H-benzooxazol-2-one], the results for the IC50 in assay [1] and in assay [2] were 5.36 nM and more than 10200 nM, respectively.
`COc1cc(C#N)cc(-n2cc(C(O)c3c(C4CC4)sc4cncn34)nn2)c1` (racemic) [Example 197, rac-3-{4-[(2-Cyclopropyl-imidazo[5,1-b]thiazol-3-yl)-hydroxy-methyl]-[1,2,3]triazol-1-yl}-5-methoxy-benzonitrile]: the IC50 in assay [1] is 52.4 nM; in assay [2] it was more than 10200 nM.
Consider `COC(=O)c1cccc(Cn2cc(C(O)c3c(C4CC4)sc4cncn34)nn2)c1` (racemic) [Example 294, rac-3-{4-[(2-Cyclopropyl-imidazo[5,1-b]thiazol-3-yl)-hydroxy-methyl]-[1,2,3]triazol-1-ylmethyl}-benzoic acid methyl ester], for which the IC50 in assay [1] is 35.8 nM; in assay [2], more than 10200 nM.
On to `OC(c1ccc(-c2ccccc2C(F)(F)F)s1)c1c(C2CC2)sc2cncn12` (racemic) [Example 170, rac-(2-Cyclopropyl-imidazo[5,1-b]thiazol-3-yl)-[5-(2-trifluoromethyl-phenyl)-thiophen-2-yl]-methanol], for which the concentration for half-maximal inhibition (IC50) in assay [1] is 550 nM; in assay [2] it was 3820 nM.
The matching figures for `COc1ccc(-n2nnc(C(O)c3c(C4CC4)sc4cncn34)c2C)cc1Cl` (racemic) [Example 295, rac-[1-(3-Chloro-4-methoxy-phenyl)-5-methyl-1H-[1,2,3]triazol-4-yl]-(2-cyclopropyl-imidazo[5,1-b]thiazol-3-yl)-methanol]: 6.63 nM and 8840 nM.
Consider `COc1ncc(-n2cc(C(O)c3c(C4CC4)sc4cncn34)nn2)cc1C` (racemic) [Example 71, rac-(2-Cyclopropyl-imidazo[5,1-b]thiazol-3-yl)-[1-(6-methoxy-5-methyl-pyridin-3-yl)-1H-[1,2,3]triazol-4-yl]-methanol], for which the IC50 in assay [1] is 55.9 nM; in assay [2], more than 10200 nM.
Consider `CCOc1ccc(-n2cc(C(O)c3c(C4CC4)sc4cncn34)nn2)cn1` (racemic) [Example 42, rac-(2-Cyclopropyl-imidazo[5,1-b]thiazol-3-yl)-[1-(6-ethoxy-pyridin-3-yl)-1H-[1,2,3]triazol-4-yl]-methanol], for which the IC50 in assay [1] was 20.2 nM; in assay [2] it was more than 10200 nM.
The matching figures for `COc1ccc(-n2cc(C(O)c3c(-c4ccccc4)sc4cncn34)nn2)cc1` (racemic) [Example 249, rac-[1-(4-Methoxy-phenyl)-1H-[1,2,3]triazol-4-yl]-(2-phenyl-imidazo[5,1-b]thiazol-3-yl)-methanol]: 74.8 nM and more than 10200 nM.
In the same order, the values of `CCOc1ccc(-n2nnc(C(O)c3c(C4CC4)sc4cncn34)c2C)cc1Cl` (racemic) [Example 296, rac-[1-(3-Chloro-4-ethoxy-phenyl)-5-methyl-1H-[1,2,3]triazol-4-yl]-(2-cyclopropyl-imidazo[5,1-b]thiazol-3-yl)-methanol] are 14.1 nM and more than 10200 nM.
In the same order, the values of `CC(C)C(=O)Nc1ccc(-n2cc(C(O)c3c(C4CC4)sc4cncn34)cn2)cc1` (racemic) [Example 246, rac-N-(4-{4-[(2-Cyclopropyl-imidazo[5,1-b]thiazol-3-yl)-hydroxy-methyl]-pyrazol-1-yl}-phenyl)-isobutyramide] are 29.8 nM and 3800 nM.
Consider `CCOc1ncc(-n2cc(C(O)c3c(C4CC4)sc4cncn34)nn2)cn1` (racemic) [Example 65, rac-(2-Cyclopropyl-imidazo[5,1-b]thiazol-3-yl)-[1-(2-ethoxy-pyrimidin-5-yl)-1H-[1,2,3]triazol-4-yl]-methanol], for which the figures for the half-maximal inhibitory concentration (IC50) in assay [1] and in assay [2] were 14.2 nM and more than 10200 nM, respectively.
In the same order, the values of `OC(c1cn(Cc2ccccc2)nn1)c1c(C2CC2)sc2cncn12` (racemic) [Example 1, rac-(1-Benzyl-1H-[1,2,3]triazol-4-yl)-(2-cyclopropyl-imidazo[5,1-b]thiazol-3-yl)-methanol] are 90.3 nM and more than 10200 nM.
The matching figures for `CCc1sc2cncn2c1C(O)c1cn(-c2ccc(OCC3(F)COC3)c(Cl)c2)nn1` (racemic) [Example 317, rac-{1-[3-Chloro-4-(3-fluoro-oxetan-3-ylmethoxy)-phenyl]-1H-[1,2,3]triazol-4-yl}-(2-ethyl-imidazo[5,1-b]thiazol-3-yl)-methanol]: 7.18 nM and more than 10200 nM.
Regarding `COc1ccc(-n2cc(C(O)c3c([C@@H]4C[C@H]4F)sc4cncn34)nn2)cc1` (relative stereo) [Example 94, [2-(trans-2-Fluoro-cyclopropyl)-imidazo[5,1-b]thiazol-3-yl]-[1-(4-methoxy-phenyl)-1H-[1,2,3]triazol-4-yl]-methanol], the results for the half-maximal inhibitory concentration (IC50) in assay [1] and in assay [2] were 12.8 nM and more than 10200 nM, respectively.
The matching figures for `OC(c1cn(-c2ccc(OCC3CCCO3)cc2)nn1)c1c(C2CC2)sc2cncn12` (racemic) [Example 90, rac-(2-Cyclopropyl-imidazo[5,1-b]thiazol-3-yl)-{1-[4-(tetrahydro-furan-2-ylmethoxy)-phenyl]-1H-[1,2,3]triazol-4-yl}-methanol]: 18.7 nM and more than 10200 nM.
The matching figures for `CCOc1ccc(-n2cc(C(O)c3c(C4CC4)sc4cncn34)nn2)cc1` (racemic) [Example 32, rac-(2-Cyclopropyl-imidazo[5,1-b]thiazol-3-yl)-[1-(4-ethoxy-phenyl)-1H-[1,2,3]triazol-4-yl]-methanol]: 5.3 nM and more than 10200 nM.
